Molecular target: thrombin (Homo sapiens, UniProt P00734)
Test: Ki determinations thrombin (fluorogenic substrate Tosyl-GPR-AMC)
Type: biochemical
Details: 20 °C; Tosyl-GPR-AMC 20 µM; thrombin concentration of 100 pM; HBS pH 7.4
Procedure: The Ki determinations are carried out at 20 °C with the fluorogenic substrate Tosyl-GPR-AMC (Bachem, Heidelberg, Germany; λexc = 370 nm, λem = 450 nm) at a thrombin concentration of 100 pM in HBS pH 7.4. The substrate is added to a final concentration of 20 µM in a total assay volume of 100 µl. The enzymatic reaction is started by addition of substrate. The emission at 450 nm is monitored in 1 minute intervals for 10 minutes using a polarstar reader (BMG Laboratories, Offenburg, Germany). Initial velocities of the control and the inhibited reactions (vo and vi) are estimated in FU/min at different compound concentrations. The inhibition constants are calculated using the Michaelis-Menten equation for competitive inhibition.

SMILES: Fc1c(NCCC2CCCCN2)ncc(Cl)c1CCNCc1n[nH]c2ccc(Cl)cc12 (stereo not shown) [example 1]
- Ki: < 1 µM
